Test results taken from paper doi:10.1101/2022.04.14.488411v1 (biorxiv, 2022).
Where two headings read alike, the source gives them in different places. Values belong to the compound of their own block, whether it stands above or below them.

How the values were obtained:
RPMI 8226 [1] = assay: cells; settings: Homo sapiens, RPMI-8226, 72 h, read-out: IC50 (uM)
RPMI 8226 [2] = assay: cells; settings: Homo sapiens, RPMI-8226, 72 h, read-out: IC50 (uM); remark: listed apart in the source
ABCG2 [3] = assay: cells; settings: Homo sapiens, RPMI-8226, 72 h, read-out: IC50 (uM)
RPMI 8226 [4] = assay: cells; settings: Homo sapiens, RPMI-8226, 72 h, read-out: IC50 (uM); remark: listed apart in the source
ABCG2 [5] = target: T1, ABCG2 (Homo sapiens, UniProt Q9UNQ0); assay: potentiation of TAK-243 cytotoxicity, Resazurin viability; format: cell-based
T1 sequence (Q9UNQ0 1-655): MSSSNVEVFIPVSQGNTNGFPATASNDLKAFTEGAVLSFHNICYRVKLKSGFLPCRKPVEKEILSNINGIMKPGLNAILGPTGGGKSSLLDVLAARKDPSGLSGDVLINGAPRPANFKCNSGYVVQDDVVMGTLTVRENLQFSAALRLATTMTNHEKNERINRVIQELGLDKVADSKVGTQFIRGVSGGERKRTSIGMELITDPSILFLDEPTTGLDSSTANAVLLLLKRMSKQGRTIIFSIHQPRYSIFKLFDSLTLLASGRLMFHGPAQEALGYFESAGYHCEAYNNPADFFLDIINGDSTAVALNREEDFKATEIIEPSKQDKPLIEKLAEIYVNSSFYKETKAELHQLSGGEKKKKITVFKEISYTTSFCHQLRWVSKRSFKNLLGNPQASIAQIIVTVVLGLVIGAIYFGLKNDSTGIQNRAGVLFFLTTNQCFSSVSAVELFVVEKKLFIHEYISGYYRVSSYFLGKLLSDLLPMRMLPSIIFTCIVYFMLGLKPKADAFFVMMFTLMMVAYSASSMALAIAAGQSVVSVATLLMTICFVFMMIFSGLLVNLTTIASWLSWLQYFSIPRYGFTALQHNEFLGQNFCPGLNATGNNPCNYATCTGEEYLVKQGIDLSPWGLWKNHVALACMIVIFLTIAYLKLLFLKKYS

RPMI 8226 [6] = assay: cells; parameters: species or system KMS11; settings: Homo sapiens, RPMI-8226, 72 h, read-out: IC50 (nM), TAK-243 alone
MDAY-D2 = assay: cells; settings: Mus musculus, MDAY-D2, 72 h, read-out: IC50 (nM)
RPMI 8226 [7] = assay: cells; parameters: species or system KMS11; settings: Homo sapiens, RPMI-8226, 72 h, read-out: IC50 (nM), TAK-243 alone; remark: listed apart in the source
KMS11 = assay: cells; parameters: species or system RPMI 8226; settings: Homo sapiens, KMS-11, 72 h, read-out: IC50 (nM)
OCI-M2 = assay: cells; settings: OCI-M2, 72 h, read-out: IC50 (nM)
HepG2 = assay: cells; settings: Homo sapiens, HepG2, 72 h, read-out: IC50 (nM)
Jurkat = assay: cells; settings: Homo sapiens, Jurkat, 72 h, read-out: IC50 (nM)
A549 = assay: cells; settings: Homo sapiens, A549, 72 h, read-out: IC50 (nM)
HEK293 = assay: cells; settings: Homo sapiens, HEK293, 72 h, read-out: IC50 (nM)
OCI-AML2 = assay: cells; settings: Homo sapiens, OCI-AML2, 72 h, read-out: IC50 (nM)
NB4 = assay: cells; settings: Homo sapiens, NB-4, 72 h, read-out: IC50 (nM)
K562 = assay: cells; settings: Homo sapiens, K562, 72 h, read-out: IC50 (nM)
MCF7 = assay: cells; settings: Homo sapiens, MCF7, 72 h, read-out: IC50 (nM)
U937 = assay: cells; settings: Homo sapiens, U-937, 72 h, read-out: IC50 (nM)
MV4-11 = assay: cells; settings: Homo sapiens, MV4-11, 72 h, read-out: IC50 (nM)
RPMI 8226 [8] = assay: cells; settings: Homo sapiens, RPMI-8226, 72 h, read-out: IC50 (nM)

IC50 (RPMI 8226 [1]): 0.997 µM
SMILES: NS(=O)(=O)OC[C@@H]1C[C@@H](n2ccc3c(N[C@H]4CCc5ccccc54)ncnc32)C[C@@H]1O [Pevo, pevonedistat]

IC50 (ABCG2 [3]): > 10 µM | IC50 (RPMI 8226 [2]): > 10 µM
SMILES: N#Cc1ccnc(N2C(=O)CC[C@H]2C(=O)N(c2cncc(F)c2)[C@H](C(=O)NC2CC(F)(F)C2)c2ccccc2Cl)c1 [Ivosidenib]

IC50 (RPMI 8226 [4]): > 10 µM
SMILES: COc1ccccc1C(=O)Nc1cc2c(cc1N1CCCC1)n(C)c(=O)n2C [PFI-4]

IC50 (RPMI 8226 [4]): > 10 µM
SMILES: Clc1cc2c(NC3CCCC3)nnc(-c3ccncc3)c2cc1Cl [A-196]
apparent IC50 (ABCG2 [5]): 521.8 nM

More lines, now with the values behind:

SMILES: O=C1c2c(O)ccc(O)c2C(=O)c2c(NCCNCCO)ccc(NCCNCCO)c21 [MTX, mitoxantrone]
IC50 (RPMI 8226 [1]): 0.0786 µM

SMILES: CO[C@H]1CC[C@H](n2c([C@@H]3CCCC(=O)N3c3ccc(F)c(F)c3)nc3cc(-c4c(C)noc4C)ccc32)CC1 [Inobrodib]
IC50 (RPMI 8226 [2]): 7.62 µM

SMILES: CCCc1cc(C)[nH]c(=O)c1CNC(=O)c1cc(-c2ccc(N3CCN(C(C)C)CC3)nc2)cc2c1cnn2C(C)C [UNC1999]
IC50 (RPMI 8226 [4]): > 10 µM

SMILES: NS(=O)(=O)OC[C@H]1C[C@@H](Nc2ccnc3cc(-c4cccc(SC(F)(F)F)c4)nn23)[C@H](O)[C@@H]1O [TAK-243]
IC50 (RPMI 8226 [6]): 558 nM | IC50 (MDAY-D2): 1230 nM | IC50 (RPMI 8226 [7]): 578 nM | IC50 (KMS11): 685 nM | IC50 (OCI-M2): 44 nM | IC50 (HepG2): 60.1 nM | IC50 (Jurkat): 12.2 nM | IC50 (A549): 1290 nM | IC50 (HEK293): 177 nM | IC50 (OCI-AML2): 27.1 nM | IC50 (NB4): 10.1 nM | IC50 (K562): 6.43 nM | IC50 (MCF7): 404 nM | IC50 (U937): 17.9 nM | IC50 (MV4-11): 19.4 nM | IC50 (RPMI 8226 [8]): 1370 nM

SMILES: COc1cc(-c2cn(C)c(=O)c3cnccc23)c(OC)cc1CN(C)C [BI-9564]
IC50 (ABCG2 [3]): > 10 µM | IC50 (RPMI 8226 [2]): > 10 µM

SMILES: COc1ccc(CCc2nc3cc(-c4c(C)noc4C)ccc3n2C[C@H](C)N2CCOCC2)cc1Cl [SGC-CBP30]
IC50 (RPMI 8226 [4]): > 10 µM

SMILES: COc1c(C)cc(NC(=O)c2nn(Cc3ccc(F)cc3)c3c2CN(C(=O)c2ccc[nH]2)C[C@]3(C)C(N)=O)cc1C [GSK-864]
IC50 (RPMI 8226 [4]): > 10 µM
